Results as given in patent US6689803B2, “Compositions and methods for treating surgical adhesions” (Angiotech Pharmaceuticals, Inc., priority 1996, dated 2004).
Where two headings read alike, the source gives them in different places.

Experiments:
[1] = test system: chick chorioallantoic membrane (CAM) vasculature; conditions: for CAM vasculature: 2-day exposure
[2] = test system: synoviocytes; test: Proliferation assay (MTT); type: cell-based; conditions: 24-hour exposure
Experimental: On day one, 5-10×10^4 synoviocytes were plated per well (96-well plate). Column #1 was kept free of cells (blank). On day 2, the plate was flicked to discard the medium and 200 μl of medium containing various concentrations of drug was added. […] There was no drug added to columns #1 and #2 (blank and untreated control, respectively). The medium containing the drug was discarded and 200 μl of fresh complete medium was added. The cells were then left to grow for an additional 3 to 4 days. On day five, 20 μl of dimethylthiazol diphenyltetrazolium bromide salt (MTT) (5 mg/ml PBS) was added and allowed to incubate for 4 hours at 37° C. The medium was decanted and 200 μl of DMSO was added.
The data were expressed as the % of survival which was obtained by dividing the number of cells remaining after treatment by the number of cells in the untreated control column #2 (the number of cells was obtained from a standard done prior to the assay).

[3] = test system: AP-1 transcriptional activity; test: IL-1 stimulated AP-1 driven CAT reporter gene in chondrocytes; type: cell-based; conditions: 10^−7 to 10^−5 M
Excerpt: The data noted with an asterisk (*) have significance compared with IL-1-induced CAT activity according to a t-test, P<0.05. The results shown are representative of three independent experiments.

[4] = Paclitaxel solubility in permeation enhancers; type: physicochemical; conditions: 37° C.
Experimental: The following permeation enhancers were examined: Transcutol®, ethanol, propylene glycol, isopropyl myristate, oleic acid and Transcutol:isopropyl myristate (9:1 v:v). […] A sample of 0.5 ml of the fluid from each vial was centrifuged at 37° C. and 13000 rpm for 2 minutes. Aliquots (0.1 ml) of supernatant from the centrifuge tubes were transferred to volumetric flasks and diluted with methanol. Paclitaxel content was assessed by high pressure liquid chromatography (HPLC).

Structure (SMILES): CC(=O)O[C@H]1C(=O)[C@@]2(C)[C@H]([C@H](OC(=O)c3ccccc3)[C@]3(O)C[C@H](OC(=O)[C@H](O)[C@@H](NC(=O)c4ccccc4)c4ccccc4)C(C)=C1C3(C)C)[C@]1(OC(C)=O)CO[C@@H]1C[C@@H]2O [paclitaxel]
- CAM vasculature ([1]; 5% paclitaxel-loaded PCL microspheres, 1 mg): marked vascular regression and zones which were devoid of a capillary network
- diameter of avascular areas ([1]; 48 hour exposure to 10 μg paclitaxel per 10 ml of methylcellulose): approximately 6 mm
- avascular zones did not revascularize for ([1]; after application): at least 7 days
- inhibition of angiogenesis occurs as early as ([1]; after application): 9 h
- avascular gradient scale ([1]; maximal avascular zone within 48 hours depending on concentration, methylcellulose disk): 3
- Inhibition/n ([1]; micellar solution (10 ul), 10%): too toxic
- CAM vasculature ([1]; paclitaxel-gelatin-PCL paste, 1 mg pieces): consistently showed vascular regression and zones which lacked a capillary network
- maximal avascular zone diameter ([1]; within 48 hours depending on concentration, methylcellulose disk): 6 mm
- IC50 [2]: ~30 nM
- IL-1 induced AP-1 reporter gene CAT activity [3]: reduced in chondrocytes by paclitaxel in a concentration dependent manner
- Paclitaxel concentration at saturation, Average ([4]; Ethanol): 68.91 mg/mL
- Paclitaxel concentration at saturation, Average ([4]; Isopropyl myristate): 0.43 mg/mL
- Paclitaxel concentration at saturation, Average ([4]; Oleic acid): 0.31 mg/mL
- Paclitaxel concentration at saturation, Average ([4]; Propylene glycol): 21.56 mg/mL
- Paclitaxel concentration at saturation, Average ([4]; Transcutol): 346.9 mg/mL
- Paclitaxel concentration at saturation, Average ([4]; Transcutol, listed as Paclitaxel): 346.85 mg/mL
- Paclitaxel concentration at saturation, Average ([4]; Transcutol:isopropyl myristate (9:1 v:v)): 353.9 mg/mL
- Paclitaxel concentration at saturation, Average ([4]; Transcutol:isopropyl myristate (9:1 v:v), listed as Paclitaxel): 353.93 mg/mL
